# Assay results as given in patent US20110071124A1, “Compounds that Inhibit Production of sAPPB and AB and Uses Thereof” (The Trustees of Columbia University in the City of New York, priority 2008, published 2011).
# System: Aβ40 in Lenti-APPsw infected primary cortical neurons
# Test: Aβ40 ELISA in Lenti-APPsw infected primary cortical neurons
# Format: cell-based, mouse
# Details: 10 μM, 24 hours
# Procedure: FIG. 15A-D. LDN-0057228 reduces Aβ40 and sAPPβ in primary neurons. DIV-14 primary cortical neurons from wild-type mice were incubated for 24 hours with primary culture media containing lentivirus harboring APPsw. After infection, neurons were incubated for 48 hours with 1:1 fresh to conditioned media to allow for APP expression. Neurons were then treated with LDN-0057228 at 20 μM for 24 hours in triplicate. A) Media was collected for Aβ40 ELISA. Raw Aβ40 values were normalized to APP to control for variations in lentiviral infection efficiency. B) Cell lysates were probed with 6E10 antibody to visualize the transduced full-length APP. C) sAPPβ from neuron culture media was immunoprecipitated with sβsw antibody and probed with LN27. D) Quantification of sAPPβ, normalized to APP. Data in A) and […]) represent mean+s.d. of 3 wells. Bands from B) and C) were quantified using ImageJ software.
# FIG. 16A-B. CNS-2 and LDN-0057228 reduce Aβ40 in primary neurons. DIV-14 primary cortical neurons from wild-type mice were incubated for 24 hours with primary culture media containing lentivirus harboring APPsw. After infection, neurons were incubated for 48 hours with 1:1 fresh to conditioned media to allow for APP expression. Neurons were then treated for 24 hours with the indicated compound and concentration. A) Media was collected for Aβ40 ELISA. Raw Aβ40 values were normalized to APP to control for variations in lentiviral infection efficiency. B) Cell lysates were probed with 6E10 antibody to visualize the transduced full-length APP.
# Lenti-APPsw infected primary cortical neurons were selected for the initial round of physiological experiments due to the relatively large batches of wild-type primary cortical neurons that were routinely harvested in the lab, the ease of lentiviral packaging. Primary cortical neurons were harvested from wild-type P0 pups using established protocols.
# The Lenti-APPsw vector was co-transfected into HEK293 T cells with ViraPower packaging mix (Invitrogen) to generate the lentivirus. Lentiviral-mediated transduction of APPsw in primary neurons was performed by adding neuron primary culture media containing the lentiviral particles to wild-type DIV-14 primary neurons (FIG. 14). After 24 hours, neurons were incubated with media for 72 hours prior to collecting for Aβ40 measurement. Two batches of virus (LV-1 and LV-2) were tested, showing that there is batch-to-batch variation in the viral titer.
# Using this experimental paradigm, LDN-0057228 was tested at 20 μM concentration to confirm the sAPPβ- and Aβ-lowering activity of the compound (FIG. 15). The protocol was modified slightly to allow for 24-hour compound treatment. […]
row,Compound,reduction in Aβ40
1,CS(=O)(=O)c1nnnn1-c1ccccc1Cl [LDN-0069630],15%

# Same assay, conditions: 15 μM, 24 hours
row,Compound,reduction in Aβ40
1,CS(=O)(=O)c1nnnn1-c1ccccc1Cl [LDN-0069630],40%

# System: sAPPβ (BACE1 cleavage of SEAP-APPwt) in SY5Y-BACEGFP-SEAPAPPwt cells
# Test: cell-based BACE1 assay (sAPPβ modified ELISA)
# Details: 10 μM, positive control, 384-well LDDN screen, on average
# Procedure: FIG. 1. An sAPPβ assay utilized to identify inhibitors of BACE1. The assay utilizes SY5Y cells stably overexpressing BACE-GFP and SEAP-APPwt. Cells are incubated with a candidate compound for 6 hours prior to harvesting media. BACE1-mediated cleavage of APP results in the release of sAPPβ into the media. α-secretase, a competing enzyme that is non-amyloidogenic, also cleaves APP to release […]. Using an sAPPβ-specific antibody (sβwt), SEAP-sAPPβ is specifically captured in a modified ELISA assay. Detection is achieved by addition of the fluorescent alkaline phosphatase substrate, 4-methylumbelliferyl phosphate (4-MUP).
# (§1) FIG. 13. […] Compounds were tested in SY5Y-BACEGFP-SEAPAPPwt cells using the cell-based BACE1 assay. Select compounds were also investigated for Aβ-lowering effect using a commercial Aβ ELISA kit (BioSource). All compounds were tested at 8 concentrations (30, 10, 3, 1, 0.3, 0.1, 0.03, and 0.01 μM), and data points were analyzed with Origin software and fitted using a logistic model for IC50 determination.
# As described in the Examples below, and depicted in FIG. 1, an sAPPβ ELISA assay may comprise cells, for example, SY5Y cells, transfected with a BACE1 reporter construct, such as a GFP-tagged BACE1 (BACE-GFP), and a wild type APP reporter construct, such as a secreted alkaline phosphatase (SEAP)-tagged wild type APP (SEAP-APPwt). BACE1 cleavage of the reporter-tagged APP (e.g. SEAP-APPwt) may result in secretion into the media of SEAP-tagged sAPPβ, which may be collected and specifically captured using an sAPPβ cleavage site-specific antibody (e.g. stβwt). Following washing, a substrate may be used, for example, the fluorescent alkaline phosphatase substrate 4-methylumbelliferyl phosphate (4-MUP), to detect the captured SEAP-sAPPβ.
# A cell-based modified ELISA assay for measuring sAPPβ, the secreted ectodomain of β-amyloid precursor protein (APP) following β-secretase (BACE1) cleavage, was used to identify a class of compounds that interfered with the first step of sAPPβ generation. This assay has been described in International Application PCT/US2007/015938 (Published as International Publication No. WO 08/008463), which is herein incorporated in its entirety for all purposes.
# The SY5Y-BACEGFP-SEAPAPPwt cell based assay was developed to discover novel small molecule modulators of BACE1 activity. SY5Y cells were stably transfected with GFP-tagged BACE1 (BACE-GFP) and secreted alkaline phosphatase (SEAP)-tagged wildtype APP (SEAP-APPwt). BACE1 cleavage of SEAP-APPwt results in secretion into the media of SEAP-tagged sAPPβ, which is collected and specifically captured using an sAPP0 cleavage site-specific antibody (sβwt). After washing, the fluorescent alkaline phosphatase substrate 4-methylumbelliferyl phosphate (4-MUP) is used to detect the captured SEAP-sAPPβ (FIG. 1).
# The 15 LDDN compounds selected based on their 3-point dose-response profile were tested at 12 concentrations (ranging from 0.1 nM to 30 μM) in the cell-based BACE1 assay. The assay was conducted in 96-well format to maximize the Z′ factor. Compounds were characterized in duplicate cell plates, each containing 12 doses of compound in triplicate. Cell viability was measured at 6 and 24 hours using Promega's Cell Titer-Glo kit according to the manufacturer's protocol. The dose-response curves for sAPPβ reduction were plotted using Origin software and fitted using a logistic model for IC50 determination.
# (§2) 27 structural analogs of LDN-0057228 were synthesized and tested using the cell-based BACE1 assay in SY5Y-BACEGFP-SEAPAPPwt cells (FIG. 13). 4 analogs, in addition to the parent compound, were also assessed for Aβ40 lowering activity using a commercial Aβ kit (BioSource). Because LDN-0057228 resembles CNS monoamine transporter inhibitors, this analog series was given the designation “CNS.” LDN-0057228 gave an unexpectedly low potency (IC50˜20 μM for both sAPPβ and Aβ40 reduction) compared to the ˜7 μM potency obtained using the same compound in FIG. 8.
row,Compound,suppression of sAPPβ generation
1,BACE inhibitor IV [reference compound],> 95%

# Same assay, conditions: SAR study, 8 concentrations (30-0.01 μM), SY5Y-BACEGFP-SEAPAPPwt cells
row,Compound,IC50(sAPPβ)
1,NC(=O)[C@@H]1CCN1CCOC(c1ccc(F)cc1)c1ccc(F)cc1 [CNS-17],inactive
2,Fc1ccc(C(OCCN2CC[C@H]2CNCCCc2ccccc2)c2ccc(F)cc2)cc1 [CNS-20],inactive
3,NC(=O)[C@@H]1CCCN1C(c1ccc(F)cc1)c1ccc(F)cc1 [CNS-24],inactive
4,Fc1ccc(C(OCCNCCNCCCc2ccccc2)c2ccc(F)cc2)cc1 [CNS-22],inactive
5,NC(=O)[C@H]1CCCN1CCOC(c1ccc(F)cc1)c1ccc(F)cc1 [CNS-11],inactive
6,O=C(CCc1ccccc1)NCCN(CCOC(c1ccc(F)cc1)c1ccc(F)cc1)CCOC(c1ccc(F)cc1)c1ccc(F)cc1 [CNS-23],inactive
7,O=C(CCc1ccccc1)NCCNCCOC(c1ccc(F)cc1)c1ccc(F)cc1 [CNS-21],inactive
8,NC(=O)[C@@H]1CCCCN1CCOC(c1ccc(F)cc1)c1ccc(F)cc1 [CNS-15],inactive
9,O=C(CCc1ccccc1)NC[C@@H]1CCN1CCOC(c1ccc(F)cc1)c1ccc(F)cc1 [CNS-19],inactive
10,NC(=O)[C@@H]1CCCN1CCOC(c1ccc(F)cc1)c1ccc(F)cc1 [CNS-16],inactive

# Same assay, conditions: SAR study, 8 concentrations (30-0.01 μM), SY5Y-BACEGFP-SEAPAPPwt cells; read-out: IC50(sAPPβ)
row,Compound,IC50
1,COC(=O)NC[C@@H]1CCCN1CCOC(c1ccc(F)cc1)c1ccc(F)cc1 [CNS-4],23.3 µM
2,O=C(CCc1ccccc1)NC[C@@H]1CCCN1C(c1ccc(F)cc1)c1ccc(F)cc1 [CNS-26],32.1 µM
3,Fc1ccc(C(OCCN2CCC[C@H]2CNCCCc2ccccc2)c2ccc(F)cc2)cc1 [CNS-1],10.5 µM
4,"Fc1ccc(C(OCCN2CCN(CCCc3ccccc3)CC2)c2ccc(F)cc2)cc1 [GBR 12909, reference compound]",34.6 µM
5,NC[C@@H]1CCCN1C(c1ccc(F)cc1)c1ccc(F)cc1 [CNS-25],31.4 µM
6,O=C(CCc1ccccc1)NC[C@@H]1CCCCN1CCOC(c1ccc(F)cc1)c1ccc(F)cc1 [CNS-14],14 µM
7,NC[C@@H]1CCN1CCOC(c1ccc(F)cc1)c1ccc(F)cc1 [CNS-18],> 50 µM
8,Fc1ccc(C(OCCN2CCCC[C@H]2CNCCCc2ccccc2)c2ccc(F)cc2)cc1 [CNS-13],9 µM
9,Fc1ccc(C(c2ccc(F)cc2)N2CCC[C@H]2CNCCCc2ccccc2)cc1 [CNS-27],10.2 µM
10,NC[C@@H]1CCCCN1CCOC(c1ccc(F)cc1)c1ccc(F)cc1 [CNS-12],> 50 µM
11,NC[C@@H]1CCCN1CCOC(c1ccc(F)cc1)c1ccc(F)cc1 [CNS-6],27.9 µM
12,CNC[C@@H]1CCCN1CCOC(c1ccc(F)cc1)c1ccc(F)cc1 [CNS-3],11.5 µM
13,NC[C@H]1CCCN1CCOC(c1ccc(F)cc1)c1ccc(F)cc1 [CNS-10],38.3 µM
14,CC(=O)NC[C@@H]1CCCN1CCOC(c1ccc(F)cc1)c1ccc(F)cc1 [CNS-5],20.8 µM
15,Fc1ccc(C(OCCN2CCC[C@@H]2CNCCCc2ccccc2)c2ccc(F)cc2)cc1 [CNS-8],5.7 µM
16,O=C(CCc1ccccc1)NC[C@H]1CCCN1CCOC(c1ccc(F)cc1)c1ccc(F)cc1 [CNS-9],20.4 µM

# System: Aβ40 in SY5Y-BACEGFP-SEAPAPPwt cells
# Test: Aβ40 ELISA (BioSource) in SY5Y-BACEGFP-SEAPAPPwt cells
# Format: cell-based
# Details: 4 concentrations (30, 10, 3, 0.3 μM), 6 hours
# Procedure: FIG. 11. 5 LDDN compounds reduce Aβ40 in SYSY-BACEGFP-SEAPAPPwt cells. sAPPβ and 24-hour cell viability was performed as described in Chapter 4.1. Aβ40 ELISA was performed using the Aβ40 ELISA kit (BioSource) according to the manufacturer's protocol. Cell culture media was collected after 6 hours of treatment with 4 concentrations (30, 10, 3, 0.3 μM) of compound and diluted 3:10 prior to loading onto the Aβ ELISA plate. The data points for sAPPβ and Aβ were roughly superimposed. Data points represent mean±s.d. of 3 determinations.
# as §1
# In other non-limiting embodiments, the effective amount of at least one compound of Formulas I-VII, and/or a compound depicted in FIG. 19, may be correlated with the compound's ability to reduce the level of Aβ40 in an in vitro assay that measures the level of Aβ40 produced in a cell line, for example, an SY5Y-BACEGFP-SEAPAPPwt cell line. In one non-limiting example, the level of Aβ40 expressed by the cell line may be measured through the use of an Aβ40 Elisa kit (Bio Source). In one embodiment, the assay comprises incubating the Aβ40 expressing cells with a compound of Formulas I-VII, and/or a compound depicted in FIG. 19, followed by assaying the concentration of Aβ40 in the cell media. In such an assay, a greater reduction of Aβ40 concentration in the cell media following incubation with a compound compared to a control cell line not contacted with the compound is correlative with the compound's therapeutic efficacy.
# The 15 LDDN compounds were tested in SY5Y-BACEGFP-SEAPAPPwt cells for their ability to reduce Aβ40 using a commercial Aβ40 ELISA kit (BioSource). SY5Y-BACEGFP-SEAPAPPwt cells were grown to 100% confluence and incubated with 4 concentrations of each compound (30, 10, 3, 0.3 μM). Cell culture media was collected after 6 hours of compound incubation and diluted 3:10 in sample diluent supplied in the Aβ40 ELISA kit. Aβ ELISA was performed according to the manufacturer's protocol. […] LDN-0057228 and LDN-0069630 are small molecules with ample chemical space for modification, and are thus considered good candidates for medicinal chemistry.
# as §2
row,Compound,dose-dependent decrease in Aβ40
1,CS(=O)(=O)c1nnnn1-c1ccccc1Cl [LDN-0069630],caused a dose-dependent decrease in Aβ40

# Same assay, conditions: SAR study, 8 concentrations (30-0.01 μM), SY5Y-BACEGFP-SEAPAPPwt cells
row,Compound,IC50
1,"Fc1ccc(C(OCCN2CCN(CCCc3ccccc3)CC2)c2ccc(F)cc2)cc1 [GBR 12909, reference compound]",14.5 µM
2,CNC[C@@H]1CCCN1CCOC(c1ccc(F)cc1)c1ccc(F)cc1 [CNS-3],11.5 µM
